{"source": "ChEMBL document CHEMBL3885881", "about": "“DrugMatrix”", "key": {"Rattus norvegicus [1]": {"species_on_record": "Rattus norvegicus", "assay_type": "toxicity, organism-based, Sprague-Dawley", "conditions": "in vivo, po, 330 mg/kg, 24 h, route oral GAVAGE, dose level High, time 1 day, vehicle .5 % CMC", "description": "DrugMatrix - Regimen: Single"}, "Rattus norvegicus [2]": {"species_on_record": "Rattus norvegicus", "assay": "DrugMatrix - Regimen: Daily Repeat", "assay_type": "toxicity, organism-based, Sprague-Dawley", "design": "regimen Daily Repeat, gender Male, age 6-8 weeks", "conditions": "in vivo, po, 330 mg/kg, […], route oral GAVAGE, dose level High, time 14 day, vehicle .5 % CMC"}}, "data": [{"sequence": "FERROCENE", "values": [{"measurement": "ABSOLUTE EOSINOPHIL", "setting": "Rattus norvegicus [1]; tissue Blood", "result": 50.33, "unit": "CELLS/uL"}, {"measurement": "ABSOLUTE LYMPHOCYTE", "setting": "Rattus norvegicus [1]; tissue Blood", "result": 10757, "unit": "CELLS/uL"}, {"measurement": "ABSOLUTE MONOCYTE", "setting": "Rattus norvegicus [1]; tissue Blood", "result": 373, "unit": "CELLS/uL"}, {"measurement": "ABSOLUTE SEGMENTED NEUTROPHIL", "setting": "Rattus norvegicus [1]; tissue Blood", "result": 1253, "unit": "CELLS/uL"}, {"measurement": "BASOPHIL", "setting": "Rattus norvegicus [1]; tissue Blood", "result": 0, "unit": "%"}, {"measurement": "EOSINOPHIL", "setting": "Rattus norvegicus [1]; tissue Blood", "result": 0.33, "unit": "%"}, {"measurement": "ERYTHROCYTE COUNT", "setting": "Rattus norvegicus [1]; tissue Blood", "result": 5.36, "unit": "x10E6/uL"}, {"measurement": "HEMATOCRIT", "setting": "Rattus norvegicus [1]; tissue Blood", "result": 33.23, "unit": "%"}, {"measurement": "HEMOGLOBIN", "setting": "Rattus norvegicus [1]; tissue Blood", "result": 12.53, "unit": "G/DL"}, {"measurement": "LEUKOCYTE COUNT", "setting": "Rattus norvegicus [1]; tissue Blood", "result": 12.43, "unit": "x10E3/uL"}, {"measurement": "LYMPHOCYTE", "setting": "Rattus norvegicus [1]; tissue Blood", "result": 87, "unit": "%"}, {"measurement": "MEAN CORPUSCULAR HEMOGLOBIN", "setting": "Rattus norvegicus [1]; tissue Blood", "result": 23.47, "unit": "pg"}, {"measurement": "MEAN CORPUSCULAR HEMOGLOBIN CONCENTRATION", "setting": "Rattus norvegicus [1]; tissue Blood", "result": 37.7, "unit": "G/DL"}, {"measurement": "MONOCYTE", "setting": "Rattus norvegicus [1]; tissue Blood", "result": 3, "unit": "%"}, {"measurement": "NEUTROPHIL", "setting": "Rattus norvegicus [1]; tissue Blood", "result": 9.67, "unit": "%"}, {"measurement": "NUCLEATED RED BLOOD CELLS", "setting": "Rattus norvegicus [1]; tissue Blood", "result": "0 /100WBC"}, {"measurement": "PLATELET COUNT", "setting": "Rattus norvegicus [1]; tissue Blood", "result": 1189.67, "unit": "x10E3/uL"}, {"measurement": "ALANINE AMINOTRANSFERASE", "setting": "Rattus norvegicus [1]; tissue Plasma", "result": 42.67, "unit": "u/L"}, {"measurement": "ALBUMIN", "setting": "Rattus norvegicus [1]; tissue Plasma", "result": 4.5, "unit": "G/DL"}, {"measurement": "ALKALINE PHOSPHATASE", "setting": "Rattus norvegicus [1]; tissue Plasma", "result": 371.33, "unit": "u/L"}, {"measurement": "ASPARTATE AMINOTRANSFERASE", "setting": "Rattus norvegicus [1]; tissue Plasma", "result": 77, "unit": "u/L"}, {"measurement": "BLOOD UREA NITROGEN", "setting": "Rattus norvegicus [1]; tissue Plasma", "result": 11.67, "unit": "mg/dL"}, {"measurement": "CARBON DIOXIDE", "setting": "Rattus norvegicus [1]; tissue Plasma", "result": 26.33, "unit": "mmol/L"}, {"measurement": "CREATININE", "setting": "Rattus norvegicus [1]; tissue Plasma", "result": 0.18, "unit": "mg/dL"}, {"measurement": "LACTATE DEHYDROGENASE", "setting": "Rattus norvegicus [1]; tissue Plasma", "result": 127.67, "unit": "u/L"}, {"measurement": "LIPASE", "setting": "Rattus norvegicus [1]; tissue Plasma", "result": 8.33, "unit": "u/L"}, {"measurement": "PHOSPHORUS", "setting": "Rattus norvegicus [1]; tissue Plasma", "result": 12.47, "unit": "mg/dL"}, {"measurement": "POTASSIUM", "setting": "Rattus norvegicus [1]; tissue Plasma", "result": 6.09, "unit": "MEQ/L"}, {"measurement": "TOTAL BILIRUBIN", "setting": "Rattus norvegicus [1]; tissue Plasma", "result": 0.13, "unit": "mg/dL"}, {"measurement": "TOTAL PROTEIN", "setting": "Rattus norvegicus [1]; tissue Plasma", "result": 6.33, "unit": "G/DL"}, {"measurement": "URIC ACID", "setting": "Rattus norvegicus [1]; tissue Plasma", "result": 1.03, "unit": "mg/dL"}, {"measurement": "ABSOLUTE BASOPHIL", "setting": "Rattus norvegicus [2]; tissue Blood", "result": 0, "unit": "CELLS/uL"}, {"measurement": "ABSOLUTE EOSINOPHIL", "setting": "Rattus norvegicus [2]; tissue Blood", "result": 150.8, "unit": "CELLS/uL"}, {"measurement": "ABSOLUTE LYMPHOCYTE", "setting": "Rattus norvegicus [2]; tissue Blood", "result": 17564.8, "unit": "CELLS/uL"}, {"measurement": "ABSOLUTE MONOCYTE", "setting": "Rattus norvegicus [2]; tissue Blood", "result": 546.8, "unit": "CELLS/uL"}, {"measurement": "ABSOLUTE SEGMENTED NEUTROPHIL", "setting": "Rattus norvegicus [2]; tissue Blood", "result": 2837.6, "unit": "CELLS/uL"}, {"measurement": "BASOPHIL", "setting": "Rattus norvegicus [2]; tissue Blood", "result": 0, "unit": "%"}, {"measurement": "EOSINOPHIL", "setting": "Rattus norvegicus [2]; tissue Blood", "result": 0.8, "unit": "%"}, {"measurement": "ERYTHROCYTE COUNT", "setting": "Rattus norvegicus [2]; tissue Blood", "result": 5.16, "unit": "x10E6/uL"}, {"measurement": "HEMATOCRIT", "setting": "Rattus norvegicus [2]; tissue Blood", "result": 32.2, "unit": "%"}, {"measurement": "HEMOGLOBIN", "setting": "Rattus norvegicus [2]; tissue Blood", "result": 11.86, "unit": "G/DL"}, {"measurement": "LEUKOCYTE COUNT", "setting": "Rattus norvegicus [2]; tissue Blood", "result": 21.1, "unit": "x10E3/uL"}, {"measurement": "LYMPHOCYTE", "setting": "Rattus norvegicus [2]; tissue Blood", "result": 83.2, "unit": "%"}, {"measurement": "MEAN CORPUSCULAR HEMOGLOBIN", "setting": "Rattus norvegicus [2]; tissue Blood", "result": 23.1, "unit": "pg"}, {"measurement": "MEAN CORPUSCULAR HEMOGLOBIN CONCENTRATION", "setting": "Rattus norvegicus [2]; tissue Blood", "result": 36.82, "unit": "G/DL"}, {"measurement": "MONOCYTE", "setting": "Rattus norvegicus [2]; tissue Blood", "result": 2.6, "unit": "%"}, {"measurement": "NEUTROPHIL", "setting": "Rattus norvegicus [2]; tissue Blood", "result": 13.4, "unit": "%"}, {"measurement": "NUCLEATED RED BLOOD CELLS", "setting": "Rattus norvegicus [2]; tissue Blood", "result": "0 /100WBC"}, {"measurement": "PLATELET COUNT", "setting": "Rattus norvegicus [2]; tissue Blood", "result": 1348, "unit": "x10E3/uL"}, {"measurement": "ALANINE AMINOTRANSFERASE", "setting": "Rattus norvegicus [2]; tissue Plasma", "result": 39.6, "unit": "u/L"}, {"measurement": "ALBUMIN", "setting": "Rattus norvegicus [2]; tissue Plasma", "result": 4.42, "unit": "G/DL"}, {"measurement": "ALKALINE PHOSPHATASE", "setting": "Rattus norvegicus [2]; tissue Plasma", "result": 217.6, "unit": "u/L"}, {"measurement": "ASPARTATE AMINOTRANSFERASE", "setting": "Rattus norvegicus [2]; tissue Plasma", "result": 59.8, "unit": "u/L"}, {"measurement": "BLOOD UREA NITROGEN", "setting": "Rattus norvegicus [2]; tissue Plasma", "result": 15.2, "unit": "mg/dL"}, {"measurement": "CARBON DIOXIDE", "setting": "Rattus norvegicus [2]; tissue Plasma", "result": 25, "unit": "mmol/L"}, {"measurement": "CHOLESTEROL", "setting": "Rattus norvegicus [2]; tissue Plasma", "result": 87.2, "unit": "mg/dL"}, {"measurement": "CREATININE", "setting": "Rattus norvegicus [2]; tissue Plasma", "result": 0.19, "unit": "mg/dL"}, {"measurement": "GLUCOSE", "setting": "Rattus norvegicus [2]; tissue Plasma", "result": 182.6, "unit": "mg/dL"}, {"measurement": "LIPASE", "setting": "Rattus norvegicus [2]; tissue Plasma", "result": 10.2, "unit": "u/L"}, {"measurement": "PHOSPHORUS", "setting": "Rattus norvegicus [2]; tissue Plasma", "result": 12.74, "unit": "mg/dL"}, {"measurement": "TOTAL BILIRUBIN", "setting": "Rattus norvegicus [2]; tissue Plasma", "result": 0.22, "unit": "mg/dL"}, {"measurement": "TOTAL PROTEIN", "setting": "Rattus norvegicus [2]; tissue Plasma", "result": 6.84, "unit": "G/DL"}, {"measurement": "URIC ACID", "setting": "Rattus norvegicus [2]; tissue Plasma", "result": 2.68, "unit": "mg/dL"}]}]}
